Key:
[1] = after intravenous injection into rodent or monkey; cited from earlier work
[2] = target: beta-amyloid plaques in AD brain tissue (Homo sapiens, UniProt P05067); experiment: In vitro binding assay: competitive displacement of [3H]6-OH-BTA-1 in AD brain homogenate; settings: for Ki: [3H]6-OH-BTA-1 as reference radioligand, AD brain tissue
Procedure: AD brain tissue was homogenized at 1:500 in PBS, and 800 μL suspension was used in each tube. [^3H]6-OH-BTA-1 with a concentration of 1 mCi/mL stock solution was diluted using ethanol to give an intermediate solution of 1 μCi/100 μL, which was further diluted using PBS to result in a dilute stock solution of 2.7×10^−2 μCi/100 μL, and 100 μL was used in each tube (2 vials with 100 μL of [^3H]6-OH-BTA-1 each and scintillation fluid as references). Cold 6-OH-BTA-1 or other displacer was dissolved in ethanol to result in a stock solution of 1×10^−3 M, which was further diluted using PBS or ethanol to result in solutions with concentrations ranging from 1×10^−5 to 10^−10 M, and 100 μL was used in each tube. After assembly, the tubes were vortexed, and incubated for 3 hrs at room temperature. After separation using a cell harvester, the filter paper (GF/B filter paper pretreated with 0.5% polyimine solution) was washed with 10% ethanol in PBS (3×3 mL). The filters were placed into 20 mL glass vials and 10 mL scintillation fluid each was added. After overnight incubation, the samples were counted. The data were analyzed using GraphPad Prism 4 or KaleidaGraph 3.6. […]
Some lipophilic ligands required ethanol in the medium to increase their solubility and to effect displacement of reference radioligand. […] This displacement curve was also analyzed using a homologous displacement mathematical model to extract the Bmax of the amyloid plaques. The measured Bmax is linear with the amount of amyloid used in the experiment. The ratio between Bmax and the amount of Aβ1-42 monomer measured by ELISA is about 1:2, somewhat less than that reported previously. […]
In this table, Ki is a measure (in nM units) of the binding affinity of the compound toward beta-amyloid plaques in AD brain tissue, measured through a competitive radioligand displacement in vitro assay using [^3H]6-OH-BTA-1 as the reference radioligand. The lipophilicity of the compound is represented by c Log D7.4 which is calculated through a software package (ACD/Log D version 8.0) at pH=7.4, a close mimic of physiological conditions. […]

[3] = Evaluation of radioligands in monkey in vivo with PET; parameters: species or system rhesus monkey; settings: for brain uptake and washout (PET time-activity curves): intravenous, 18F-labelled
Procedure: A male rhesus monkey (15 kg) was initially immobilized with ketamine (15 mg/kg) and subsequently anesthetized with isoflurane (1.5%) for the duration of the experiment. The monkey was placed prone in the PET camera (HRRT, Siemens/CPS, Knoxyille, Tenn., USA). A fixation device was used to secure the monkey's head during scanning. A urinary catheter was inserted and clamped so that the activity overlaying the bladder represented the total urinary excretion during the scan. Electrocardiogram, body temperature, heart and respiration rates were measured throughout the experiment. Body temperature was controlled and monitored by a forced-air temperature management unit (Bair Hugger Model 505; Arizant Healthcare Inc.; MN, USA). The scanner consisted of eight flat panel detectors with a transaxial and axial coverage of 31.2 cm and 25.2 cm, respectively. The scanner is also equipped with dual-layered phoswich detector allowing depth-of-interaction. Dynamic PET scans were acquired in 64-bit list mode format, following the intravenous administration of Compound 1.6 (2.9 mCi). The scan lasted for 2 hours containing 33 frames with duration ranging from 30 seconds to 5 minutes. Data were reconstructed into a 256×256×207 image matrix (voxel size 1.21×1.21×1.23 mm), using a 3D list mode OSEM algorithm. The reconstructed image resolution was 2.5 mm. Transmission scan was acquired with a rotating ^137Cs point source for 6 minutes and used to correct for attenuation. A model-based scatter correction was applied. Tomographic images were analyzed with PMOD 2.6. Time activity curves (FIGS. 4-6) were calculated in % SUV for volume of interest (VOIs), defined by co-registration with MRI (see below), and compared for uptake and washout between different brain regions.
Co-registration of PET Data with MRI. All frames of the original reconstructed PET data were summed and then co-registered to a T1-weighted magnetic resonance (MR) image acquired separately on a 1.5 T Signa MR scanner (GE Medical Systems) with image analysis software MEDx (Sensor Systems Inc.; Sterling, Va., U.S.A.). The summed PET image was fused with the co-registered MR image with an image fusion tool in PMOD. Several VOIs for the source organs were then manually defined on this fused image with anatomical structures identified on the MR image.

[4] = tested on: amyloid plaques in AD brain tissue slides; experiment: Autoradiography on post mortem human brain tissue slides; assay type: binding; settings: for binding in AD brain tissue slides (autoradiography): amyloid-loaded gray matter region; for radioactivity on healthy brain tissue (autoradiography): normal control brain tissue slides
Procedure: Coronal sections of cerebrum from a confirmed case of AD (person, postmortem interval (PMI) 47.5 hours) and a normal control (person, PMI 28.5 hours) were frozen rapidly in an equal mixture of dry ice and isopentane, sealed in a plastic bag and stored at −76° C. before sectioning. Frozen blocks of the medial temporal lobe (hippocampal region) were sectioned at a thickness of 14 μm, mounted on gelatin-coated glass slides, dried and stored under desiccant at −76° C. Before use, slide-mounted tissue sections were removed from the freezer, thawed at room temperature for 20 min, and air-dried. Compounds 1.6, 1.5 and 1.4 (1.0 mg) were dissolved in DMSO (3.529 mL) resulting in a stock solution of 1 mM, which was then further diluted with DMSO to 0.1 mM and then diluted with PBS to 1 μM. The AD tissue and normal tissue slides were pretreated with either a stock solution of Compounds 1.6, 1.5, and 1.4 or PBS for 20 min at room temperature. All slides were incubated for 20 min at room temperature in [^11C]PIB formulation solution (0.3 mCi). They were then dipped in ethanol for 5 min. The slides were dried on a hot plate with a stream of cold air and placed in a cassette with the exposed sides facing up. The phosphor imaging plate was held with the blue side down. The entire cassette was placed in the dark at room temperature overnight for ^11C-labeling. Digital autoradiography was acquired using a FUJI BAS 5000 phosphorimager (FUJI, Tokyo, Japan) with a resolution of 25 μm.

Sequence of beta-amyloid plaques in AD brain tissue (P05067 672-711 limits assumed): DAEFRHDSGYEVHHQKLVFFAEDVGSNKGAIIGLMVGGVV

SMILES | SUV (standardized uptake value) of radioactivity in brain [1] | Ki [2] | brain uptake and washout (PET time-activity curves) ([3]; normal male rhesus monkey) | binding in AD brain tissue slides (autoradiography) [4] | radioactivity on healthy brain tissue (autoradiography) [4] | also measured
CN(CCC[18F])c1ccc(-c2cn3cc(I)ccc3n2)cc1 [[^18F]FPM-IMPY] | about 160 % I.D. kg/g |  |  |  |  | 
CNc1ccc(-c2nc3ccc(O)cc3s2)nc1F [Compound 1.6, 2-(6-Fluoro-5-(methylamino)pyridin-2-yl)benzo[d]thiazol-6-ol] |  | 20 nM | entered the brain very well and washed out fast | clear displaceable binding | no radioactivity was observed | pharmacokinetics compared among the three radioligands ([3]; normal male rhesus monkey, PET): most promising pharmacokinetics; time to uniform distribution of radioactivity after injection ([3]; normal monkey, PET): less than 1 hour; binding with amyloid plaques from autoradiography ([4]; summary statement): specific binding
CNc1ccc(-c2nc3ccc(O)cc3s2)cc1 [Compound 6-OH-BTA-1, 2-[4-(methylamino)phenyl]-6-hydroxybenzothiazole, reference compound] |  |  |  |  |  | displacement of reference radioligand ([2]; [3H]6-OH-BTA-1 displaced by non-radioactive ligand, isolated amyloid plaques): > 95%
CN(CCF)c1ccc(-c2cn3cc(I)ccc3n2)cc1 [[^18F]FEM-IMPY, N-(2-fluoroethyl)-4-(6-iodo-H-imidazo[1,2-a]pyridin-2-yl)-N-methylbenzeneamine] | about 160 % I.D. kg/g |  |  |  |  | 
CNc1ccc(-c2nc3ccc(OC)cc3s2)nc1F [Compound 1.5, 2-Fluoro-6-(6-methoxybenzo[d]thiazol-2-yl)-N-methylpyridin-3-amine] |  | 10 nM | entered the brain very well and washed out fast | clear displaceable binding | no radioactivity was observed | 

Reference: patent US20140348748A1, “BETA-AMYLOID IMAGING AGENTS, METHODS OF MANUFACTURE, AND METHODS OF USE THEREOF” (priority 2011, published 2014)
